{"source": "PubChem BioAssay (NCI)", "assay_in_all_cases": "inhibition of tumour cell growth, NCI panel, 48 h", "key": {"[1]": {"test_system": "SNB-75 CNS"}, "[2]": {"test_system": "MDA-MB-435"}, "[3]": {"test_system": "HOP-92 NSCLC"}, "[4]": {"test_system": "KM12 colon"}, "[5]": {"test_system": "HOP-62 NSCLC"}, "[6]": {"test_system": "SNB-19 CNS"}, "[7]": {"test_system": "CCRF-CEM leukemia"}, "[8]": {"test_system": "NCI-H226 lung"}, "[9]": {"test_system": "SK-MEL-5 melanoma"}, "[10]": {"test_system": "EKVX NSCLC"}, "[11]": {"test_system": "UO-31 renal"}, "[12]": {"test_system": "A549 NSCLC"}, "[13]": {"test_system": "NCI-H522 lung"}, "[14]": {"test_system": "MALME-3M melanoma"}, "[15]": {"test_system": "SK-MEL-2 melanoma"}, "[16]": {"test_system": "SF-268 CNS"}, "[17]": {"test_system": "COLO 205 colon"}, "[18]": {"test_system": "IGROV1 ovarian"}, "[19]": {"test_system": "SR leukemia"}, "[20]": {"test_system": "OVCAR-8 ovarian"}, "[21]": {"test_system": "NCI-H23 lung"}, "[22]": {"test_system": "U251 CNS"}, "[23]": {"test_system": "DU-145 prostate"}, "[24]": {"test_system": "MDA-MB-231 breast"}, "[25]": {"test_system": "PC-3 prostate"}, "[26]": {"test_system": "SF-539 CNS"}, "[27]": {"test_system": "OVCAR-3 ovarian"}, "[28]": {"test_system": "M14 melanoma"}, "[29]": {"test_system": "SW-620 colon"}, "[30]": {"test_system": "RPMI-8226 leukemia"}, "[31]": {"test_system": "MOLT-4 leukemia"}, "[32]": {"test_system": "SN12C renal"}, "[33]": {"test_system": "HS 578T breast"}, "[34]": {"test_system": "HCT-116 colon"}, "[35]": {"test_system": "NCI/ADR-RES ovarian"}, "[36]": {"test_system": "HCC-2998 colon"}, "[37]": {"test_system": "HT29 colon"}, "[38]": {"test_system": "HCT-15 colon"}, "[39]": {"test_system": "A498 renal"}, "[40]": {"test_system": "K-562 leukemia"}, "[41]": {"test_system": "T-47D breast"}}, "note": "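Grown in 96-well plates, cells were treated for 48 hours with each compound at five concentrations. Insufficient inhibition: endpoint recorded as highest concentration tested. GI50 is the concentration that inhibits growth by half. The concentration for full growth arrest is given as TGI.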"}
{"smiles": "C[N+](C)(C)C(CSSCC(C(=O)[O-])[N+](C)(C)C)C(=O)[O-]", "note": "(stereo not given)", "values": [{"measurement": "GI50", "setting": "[1]", "value": 32.5, "unit": "µM"}, {"measurement": "GI50", "setting": "[2]", "value": 25.5, "unit": "µM"}, {"measurement": "TGI", "setting": "[2]", "value": 71.2, "unit": "µM"}, {"measurement": "GI50", "setting": "[3]", "value": 72.1, "unit": "µM"}]}
{"smiles": "N#C/C(=C\\c1ccc([N+](=O)[O-])s1)c1nc2cc(Cl)ccc2s1", "values": [{"measurement": "GI50", "setting": "[4]", "value": 1.44, "unit": "µM"}, {"measurement": "TGI", "setting": "[4]", "value": 3.84, "unit": "µM"}, {"measurement": "GI50", "setting": "[5]", "value": 1.83, "unit": "µM"}, {"measurement": "TGI", "setting": "[5]", "value": 5.44, "unit": "µM"}, {"measurement": "GI50", "setting": "[6]", "value": 1.58, "unit": "µM"}, {"measurement": "TGI", "setting": "[6]", "value": "> 100", "unit": "µM"}, {"measurement": "GI50", "setting": "[7]", "value": 0.469, "unit": "µM"}, {"measurement": "TGI", "setting": "[7]", "value": "> 100", "unit": "µM"}, {"measurement": "GI50", "setting": "[8]", "value": 0.69, "unit": "µM"}, {"measurement": "TGI", "setting": "[8]", "value": 2.36, "unit": "µM"}, {"measurement": "GI50", "setting": "[9]", "value": 0.314, "unit": "µM"}, {"measurement": "TGI", "setting": "[9]", "value": 0.955, "unit": "µM"}, {"measurement": "GI50", "setting": "[10]", "value": 1.63, "unit": "µM"}, {"measurement": "TGI", "setting": "[10]", "value": 5.82, "unit": "µM"}, {"measurement": "GI50", "setting": "[11]", "value": 0.602, "unit": "µM"}, {"measurement": "TGI", "setting": "[11]", "value": 2.8, "unit": "µM"}, {"measurement": "GI50", "setting": "[12]", "value": 3.12, "unit": "µM"}, {"measurement": "TGI", "setting": "[12]", "value": "> 100", "unit": "µM"}, {"measurement": "GI50", "setting": "[13]", "value": 1.18, "unit": "µM"}, {"measurement": "TGI", "setting": "[13]", "value": 3.56, "unit": "µM"}, {"measurement": "GI50", "setting": "[14]", "value": 0.202, "unit": "µM"}, {"measurement": "TGI", "setting": "[14]", "value": 0.541, "unit": "µM"}, {"measurement": "GI50", "setting": "[15]", "value": 1.25, "unit": "µM"}, {"measurement": "TGI", "setting": "[15]", "value": 3.7, "unit": "µM"}, {"measurement": "GI50", "setting": "[16]", "value": 2.51, "unit": "µM"}, {"measurement": "TGI", "setting": "[16]", "value": "> 100", "unit": "µM"}, {"measurement": "GI50", "setting": "[17]", "value": 1.55, "unit": "µM"}, {"measurement": "TGI", "setting": "[17]", "value": 4.06, "unit": "µM"}, {"measurement": "GI50", "setting": "[18]", "value": 0.94, "unit": "µM"}, {"measurement": "TGI", "setting": "[18]", "value": 4.52, "unit": "µM"}, {"measurement": "GI50", "setting": "[19]", "value": 0.323, "unit": "µM"}, {"measurement": "TGI", "setting": "[19]", "value": "> 100", "unit": "µM"}, {"measurement": "GI50", "setting": "[20]", "value": 0.555, "unit": "µM"}, {"measurement": "TGI", "setting": "[20]", "value": 69.2, "unit": "µM"}, {"measurement": "GI50", "setting": "[21]", "value": 0.773, "unit": "µM"}, {"measurement": "TGI", "setting": "[21]", "value": 3.91, "unit": "µM"}, {"measurement": "GI50", "setting": "[22]", "value": 0.599, "unit": "µM"}, {"measurement": "TGI", "setting": "[22]", "value": 3.02, "unit": "µM"}, {"measurement": "GI50", "setting": "[23]", "value": 2.75, "unit": "µM"}, {"measurement": "TGI", "setting": "[23]", "value": "> 100", "unit": "µM"}, {"measurement": "GI50", "setting": "[24]", "value": 0.297, "unit": "µM"}, {"measurement": "TGI", "setting": "[24]", "value": 1.21, "unit": "µM"}, {"measurement": "GI50", "setting": "[25]", "value": 1.31, "unit": "µM"}, {"measurement": "TGI", "setting": "[25]", "value": 3.42, "unit": "µM"}, {"measurement": "GI50", "setting": "[26]", "value": 1.21, "unit": "µM"}, {"measurement": "TGI", "setting": "[26]", "value": 2.79, "unit": "µM"}, {"measurement": "GI50", "setting": "[27]", "value": 1.42, "unit": "µM"}, {"measurement": "TGI", "setting": "[27]", "value": 3.23, "unit": "µM"}, {"measurement": "GI50", "setting": "[28]", "value": 0.382, "unit": "µM"}, {"measurement": "TGI", "setting": "[28]", "value": 1.68, "unit": "µM"}, {"measurement": "GI50", "setting": "[29]", "value": 0.354, "unit": "µM"}, {"measurement": "TGI", "setting": "[29]", "value": 2.09, "unit": "µM"}, {"measurement": "GI50", "setting": "[2]", "value": 1.65, "unit": "µM"}, {"measurement": "TGI", "setting": "[2]", "value": 3.19, "unit": "µM"}, {"measurement": "GI50", "setting": "[30]", "value": 0.675, "unit": "µM"}, {"measurement": "TGI", "setting": "[30]", "value": 3.26, "unit": "µM"}, {"measurement": "GI50", "setting": "[31]", "value": 2.11, "unit": "µM"}, {"measurement": "TGI", "setting": "[31]", "value": "> 100", "unit": "µM"}, {"measurement": "GI50", "setting": "[32]", "value": 0.296, "unit": "µM"}, {"measurement": "TGI", "setting": "[32]", "value": 1.43, "unit": "µM"}, {"measurement": "GI50", "setting": "[33]", "value": 2.45, "unit": "µM"}, {"measurement": "TGI", "setting": "[33]", "value": 8.45, "unit": "µM"}, {"measurement": "GI50", "setting": "[3]", "value": 0.287, "unit": "µM"}, {"measurement": "TGI", "setting": "[3]", "value": 1.6, "unit": "µM"}, {"measurement": "GI50", "setting": "[34]", "value": 0.329, "unit": "µM"}, {"measurement": "TGI", "setting": "[34]", "value": 1.27, "unit": "µM"}, {"measurement": "GI50", "setting": "[35]", "value": 1.06, "unit": "µM"}, {"measurement": "TGI", "setting": "[35]", "value": 6.07, "unit": "µM"}, {"measurement": "GI50", "setting": "[36]", "value": 2.31, "unit": "µM"}, {"measurement": "TGI", "setting": "[36]", "value": 6.8, "unit": "µM"}, {"measurement": "GI50", "setting": "[37]", "value": 3.29, "unit": "µM"}, {"measurement": "TGI", "setting": "[37]", "value": "> 100", "unit": "µM"}, {"measurement": "GI50", "setting": "[38]", "value": 0.246, "unit": "µM"}, {"measurement": "TGI", "setting": "[38]", "value": 0.622, "unit": "µM"}, {"measurement": "GI50", "setting": "[39]", "value": 3.56, "unit": "µM"}, {"measurement": "TGI", "setting": "[39]", "value": "> 100", "unit": "µM"}, {"measurement": "GI50", "setting": "[40]", "value": 0.264, "unit": "µM"}, {"measurement": "TGI", "setting": "[40]", "value": "> 100", "unit": "µM"}, {"measurement": "GI50", "setting": "[41]", "value": 1.88, "unit": "µM"}, {"measurement": "TGI", "setting": "[41]", "value": 4.97, "unit": "µM"}]}
{"smiles": "O=C1NC(=O)C(Cc2cccc(OCc3ccccc3)c2)C(=O)N1", "values": [{"measurement": "GI50", "setting": "[19]", "value": 4.07, "unit": "µg/mL"}]}
